Source: publication PMC4610166, “Structural and Functional Characterization of Recombinant Isoforms of the Lentil Lipid Transfer Protein” (Acta Naturae, 2015)

What was measured:
Assay in all cases: TNS fluorescence displacement (ex […] nm, em […] nm)
Type in all cases: binding
Lc-LTP2 = biological target: T1, Lc-LTP2 (Lens culinaris, UniProt A0AT29); details: protein 2.5 uM; 3 uM TNS, 65 uM stearic acid; 175 mM D-mannitol, 0.5 mM K2SO4, 0.5 mM CaCl2, 5 mM MES pH 7.0, 25 C; competition with TNS
T1 sequence (A0AT29 26-118): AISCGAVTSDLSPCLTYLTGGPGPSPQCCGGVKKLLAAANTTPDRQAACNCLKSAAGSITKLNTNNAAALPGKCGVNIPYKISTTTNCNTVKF

Lc-LTP3 = biological target: T2, Lc-LTP3 (Lens culinaris, UniProt A0AT30); details: protein 2.5 uM; 3 uM TNS, 65 uM stearic acid; 175 mM D-mannitol, 0.5 mM K2SO4, 0.5 mM CaCl2, 5 mM MES pH 7.0, 25 C; competition with TNS
T2 construct: mature protein, 93 residues; expressed in E. coli BL21(DE3) as His8-TrxL fusion, tag cut off with CNBr; from soluble fraction; four disulfides; monomer and dimer on SDS-PAGE
T2 sequence (A0AT30 26-118): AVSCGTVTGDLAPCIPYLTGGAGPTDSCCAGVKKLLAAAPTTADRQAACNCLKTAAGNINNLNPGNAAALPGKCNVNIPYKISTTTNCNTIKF

Lc-LTP1 = biological target: T3, Lc-LTP1 (Lens culinaris, UniProt A0AT28); details: refolded protein 2.5 uM; 3 uM TNS, 65 uM stearic acid; 175 mM D-mannitol, 0.5 mM K2SO4, 0.5 mM CaCl2, 5 mM MES pH 7.0, 25 C; competition with TNS
T3 construct: mature protein, 93 residues; expressed in E. coli BL21(DE3) as His8-TrxL fusion, tag cut off with CNBr; four disulfides; monomer and dimer on SDS-PAGE
T3 sequence (A0AT28 26-118): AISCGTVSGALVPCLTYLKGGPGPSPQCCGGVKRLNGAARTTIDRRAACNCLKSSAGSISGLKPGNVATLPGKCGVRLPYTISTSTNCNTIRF

## CCCCCCCCCCCCCCCCCC(=O)O [stearic acid]
Lc-LTP2
  % fluorescence intensity of the protein-TNS complex: all three isoforms possess the ability to bind fatty acids
Lc-LTP3
  % fluorescence intensity of the protein-TNS complex: all three isoforms possess the ability to bind fatty acids
Lc-LTP1
  % fluorescence intensity of the protein-TNS complex: all three isoforms possess the ability to bind fatty acids
